One may read the IC50 as the concentration at which inhibition is half-maximal.

Experiment [1] has as its system JAK1-dependent STAT6 phosphorylation downstream of IL-13 stimulation in TF-1 human erythroleukemia cells. Description: cells. As to conditions: TF-1, read-out: IL-13-pSTAT6 IC50.
Experiment [2] deals with JAK1-dependent STAT6 phosphorylation downstream of IL-13 stimulation in BEAS-2B human bronchial epithelial cells. As to the kind of experiment: cells. The settings on record: read-out: IL13-pSTAT6 BEASB2B IC50.

With `COCC1(c2ccc(Cl)cc2)CCN(c2cccn3nc(Nc4ccc(C(=O)N(C)C5CCN(C)CC5)cc4)nc23)CC1` [Example 1-258, 4-[[8-[4-(4-chlorophenyl)-4-(methoxymethyl)-1-piperidyl]-[1,2,4]triazolo[1,5-a]pyridin-2-yl]amino]-N-methyl-N-(1-methyl-4-piperidyl)benzamide; formic acid], the IC50 in experiment [1] was 93.4 nM; in experiment [2], 1440 nM.
In the case of `CN1CCC2CN(C(=O)c3ccc(Nc4nc5c(N6CCC(CO)(c7ccc(Cl)cc7)CC6)cccn5n4)cc3)CC21` (centres unmarked) [Example 1-275, [4-[[8-[4-(4-chlorophenyl)-4-(hydroxymethyl)-1-piperidyl]-[1,2,4]triazolo[1,5-a]pyridin-2-yl]amino]phenyl]-(1-methyl-2,3,3a,4,6,6a-hexahydropyrrolo[2,3-c]pyrrol-5-yl)methanone], the IC50 in experiment [1] came to 3 nM; in experiment [2], 55.5 nM.
`O=C(c1ccc(Nc2nc3c(N4CCC(CO)(c5ccc(Cl)cc5)CC4)cccn3n2)cc1)N1CCC(c2ccccn2)CC1` [Example 1-276, [4-[[8-[4-(4-chlorophenyl)-4-(hydroxymethyl)-1-piperidyl]-[1,2,4]triazolo[1,5-a]pyridin-2-yl]amino]phenyl]-[4-(2-pyridyl)-1-piperidyl]methanone]: the IC50 was found to be 95.7 nM in experiment [1] and 82 nM in experiment [2].
For the compound `C[C@H]1CN(CCNC(=O)c2ccc(Nc3nc4c(N5CCC(CO)(c6ccc(Cl)cc6)CC5)cccn4n3)cc2)C[C@H](C)O1` [Example 1-277, 4-[[8-[4-(4-chlorophenyl)-4-(hydroxymethyl)-1-piperidyl]-[1,2,4]triazolo[1,5-a]pyridin-2-yl]amino]-N-[2-[(2S,6S)-2,6-dimethylmorpholin-4-yl]ethyl]benzamide], the IC50 in experiment [1] was 23.1 nM; in experiment [2] it was 73.3 nM.
For `C[C@@H]1CN(CCNC(=O)c2ccc(Nc3nc4c(N5CCC(CO)(c6ccc(Cl)cc6)CC5)cccn4n3)cc2)C[C@H](C)O1` [Example 1-278, 4-[[8-[4-(4-chlorophenyl)-4-(hydroxymethyl)-1-piperidyl]-[1,2,4]triazolo[1,5-a]pyridin-2-yl]amino]-N-[2-[(2R,6S)-2,6-dimethylmorpholin-4-yl]ethyl]benzamide], the results for the half-inhibitory concentration (IC50) in experiment [1] and in experiment [2] were 16.3 nM and 37.6 nM, respectively.
On to `O=C(c1ccc(Nc2nc3c(N4CCC(CO)(c5ccc(Cl)cc5)CC4)cccn3n2)cc1)N1CCC(c2ccncc2)C1` (centres unmarked) [Example 1-279, [4-[[8-[4-(4-chlorophenyl)-4-(hydroxymethyl)-1-piperidyl]-[1,2,4]triazolo[1,5-a]pyridin-2-yl]amino]phenyl]-[3-(4-pyridyl)pyrrolidin-1-yl]methanone], for which the figures for the IC50 in experiment [1] and in experiment [2] were 28.1 nM and 34.6 nM, respectively.
On the same counts, the results for `O=C(NC1CCN(C2CCCC2)CC1)c1ccc(Nc2nc3c(N4CCC(CO)(c5ccc(Cl)cc5)CC4)cccn3n2)cc1` [Example 1-280, 4-[[8-[4-(4-chlorophenyl)-4-(hydroxymethyl)-1-piperidyl]-[1,2,4]triazolo[1,5-a]pyridin-2-yl]amino]-N-(1-cyclopentyl-4-piperidyl)benzamide] are 124 nM and 52.8 nM.
Regarding `C[C@H]1CN(C2CCN(C(=O)c3ccc(Nc4nc5c(N6CCC(CO)(c7ccc(Cl)cc7)CC6)cccn5n4)cc3)CC2)C[C@H](C)O1` [Example 1-281, [4-[[8-[4-(4-chlorophenyl)-4-(hydroxymethyl)-1-piperidyl]-[1,2,4]triazolo[1,5-a]pyridin-2-yl]amino]phenyl]-[4-[(2S,6S)-2,6-dimethylmorpholin-4-yl]-1-piperidyl]methanone], the IC50 in experiment [1] stood at 70.2 nM; in experiment [2], 134 nM.
As to `C[C@@H]1CN(C2CCN(C(=O)c3ccc(Nc4nc5c(N6CCC(CO)(c7ccc(Cl)cc7)CC6)cccn5n4)cc3)CC2)C[C@H](C)O1` [Example 1-282, [4-[[8-[4-(4-chlorophenyl)-4-(hydroxymethyl)-1-piperidyl]-[1,2,4]triazolo[1,5-a]pyridin-2-yl]amino]phenyl]-[4-[(2R,6S)-2,6-dimethylmorpholin-4-yl]-1-piperidyl]methanone], the results for the IC50 in experiment [1] and in experiment [2] were 42.6 nM and 55.6 nM, respectively.
Regarding `CC(C)(CNC(=O)c1ccc(Nc2nc3c(N4CCC(CO)(c5ccc(Cl)cc5)CC4)cccn3n2)cc1)N1CCOCC1` [Example 1-285, 4-[[8-[4-(4-chlorophenyl)-4-(hydroxymethyl)-1-piperidyl]-[1,2,4]triazolo[1,5-a]pyridin-2-yl]amino]-N-(2-methyl-2-morpholino-propyl)benzamide], the IC50 turned out to be 22.1 nM in experiment [1] and 57.6 nM in experiment [2].
In the case of `CCN(Cc1ccncc1)C(=O)c1ccc(Nc2nc3c(N4CCC(CO)(c5ccc(Cl)cc5)CC4)cccn3n2)cc1` [Example 1-287, 4-[[8-[4-(4-chlorophenyl)-4-(hydroxymethyl)-1-piperidyl]-[1,2,4]triazolo[1,5-a]pyridin-2-yl]amino]-N-ethyl-N-(4-pyridylmethyl)benzamide], the half-inhibitory concentration (IC50) was 22.5 nM in experiment [1] and 36.4 nM in experiment [2].
On the same counts, the results for `O=C(c1ccc(Nc2nc3c(N4CCC(CO)(c5ccc(Cl)cc5)CC4)cccn3n2)cc1)N1CCCC1c1ccncc1` (centres unmarked) [Example 1-288, [4-[[8-[4-(4-chlorophenyl)-4-(hydroxymethyl)-1-piperidyl]-[1,2,4]triazolo[1,5-a]pyridin-2-yl]amino]phenyl]-[2-(4-pyridyl)pyrrolidin-1-yl]methanone] are 28 nM and 67.7 nM.
The like results for `CN1CC[C@H]2CN(C(=O)c3ccc(Nc4nc5c(C6=CCN(C(=O)CCC(F)(F)F)CC6)cccn5n4)cc3)C[C@H]21` [Example 2-38, 1-[4-[2-[4-[(3aS,6aS)-1-methyl-2,3,3a,4,6,6a-hexahydropyrrolo[3,4-b]pyrrole-5-carbonyl]anilino]-[1,2,4]triazolo[1,5-a]pyridin-8-yl]-3,6-dihydro-2H-pyridin-1-yl]-4,4,4-trifluoro-butan-1-one] were, in that order, 2.9 nM and 28.6 nM.
The like results for `CN1CCCC12CN(C(=O)c1ccc(Nc3nc4c(C5=CCN(C(=O)CCC(F)(F)F)CC5)cccn4n3)cc1)C2` [Example 2-40, 4,4,4-trifluoro-1-[4-[2-[4-(5-methyl-2,5-diazaspiro[3.4]octane-2-carbonyl)anilino]-[1,2,4]triazolo[1,5-a]pyridin-8-yl]-3,6-dihydro-2H-pyridin-1-yl]butan-1-one] were, in that order, 3.5 nM and 18.7 nM.
For `O=C(NC1CCN(C2CCCC2)CC1)c1ccc(Nc2nc3c(C4=CCN(C(=O)CCC(F)(F)F)CC4)cccn3n2)cc1` [Example 2-49, N-(1-cyclopentyl-4-piperidyl)-4-[[8-[1-(4,4,4-trifluorobutanoyl)-3,6-dihydro-2H-pyridin-4-yl]-[1,2,4]triazolo[1,5-a]pyridin-2-yl]amino]benzamide], the half-maximal inhibitory concentration (IC50) in experiment [1] turned out to be 3.8 nM; in experiment [2] it was 10.2 nM.
In the case of `CCOC(=O)N1CC=C(c2cccn3nc(Nc4ccc(C(=O)NCCCN5CCOCC5)cc4)nc23)CC1` [Example 2-56, ethyl 4-[2-[4-(3-morpholinopropylcarbamoyl)anilino]-[1,2,4]triazolo[1,5-a]pyridin-8-yl]-3,6-dihydro-2H-pyridine-1-carboxylate], the 50% inhibitory concentration (IC50) in experiment [1] was 6.7 nM; in experiment [2], 59.4 nM.
Take `CC1CCCN(CCNC(=O)c2ccc(Nc3nc4c(C5=CCN(C(=O)CCC(F)(F)F)CC5)cccn4n3)cc2)C1` (centres unmarked) [Example 2-101, N-[2-(3-methyl-1-piperidyl)ethyl]-4-[[8-[1-(4,4,4-trifluorobutanoyl)-3,6-dihydro-2H-pyridin-4-yl]-[1,2,4]triazolo[1,5-a]pyridin-2-yl]amino]benzamide]: the concentration for half-maximal inhibition (IC50) was determined as 3.5 nM in experiment [1] and 31.8 nM in experiment [2].
As to `Cc1ccc(CNC(=O)c2ccc(Nc3nc4c(C5=CCN(C(=O)CCC(F)(F)F)CC5)cccn4n3)cc2)cn1` [Example 2-148, N-[(6-methyl-3-pyridyl)methyl]-4-[[8-[1-(4,4,4-trifluorobutanoyl)-3,6-dihydro-2H-pyridin-4-yl]-[1,2,4]triazolo[1,5-a]pyridin-2-yl]amino]benzamide], the IC50 is 3.2 nM in experiment [1] and 15 nM in experiment [2].
With `O=C(CCC(F)(F)F)N1CC=C(c2cccn3nc(Nc4ccc(C(=O)N5CCOC(c6ccccn6)C5)cc4)nc23)CC1` (centres unmarked) [Example 2-154, 4,4,4-trifluoro-1-[4-[2-[4-[2-(2-pyridyl)morpholine-4-carbonyl]anilino]-[1,2,4]triazolo[1,5-a]pyridin-8-yl]-3,6-dihydro-2H-pyridin-1-yl]butan-1-one], the IC50 was 4.5 nM in experiment [1] and 80.6 nM in experiment [2].
For the compound `O=C(CCC(F)(F)F)N1CC=C(c2cccn3nc(Nc4ccc(C(=O)N5CCC(N6CCOCC6)CC5)cc4)nc23)CC1` [Example 2-210, 4,4,4-trifluoro-1-[4-[2-[4-(4-morpholinopiperidine-1-carbonyl)anilino]-[1,2,4]triazolo[1,5-a]pyridin-8-yl]-3,6-dihydro-2H-pyridin-1-yl]butan-1-one], the IC50 was 6.9 nM in experiment [1] and 45.6 nM in experiment [2].
Regarding `CC(C)(CNC(=O)c1ccc(Nc2nc3c(C4=CCN(C(=O)CCC(F)(F)F)CC4)cccn3n2)cc1)N1CCOCC1` [Example 2-213, N-(2-methyl-2-morpholino-propyl)-4-[[8-[1-(4,4,4-trifluorobutanoyl)-3,6-dihydro-2H-pyridin-4-yl]-[1,2,4]triazolo[1,5-a]pyridin-2-yl]amino]benzamide], the half-inhibitory concentration (IC50) in experiment [1] came to 5.6 nM; in experiment [2] it was 20.6 nM.
With `CCN(Cc1ccncc1)C(=O)c1ccc(Nc2nc3c(C4=CCN(C(=O)CCC(F)(F)F)CC4)cccn3n2)cc1` [Example 2-219, N-ethyl-N-(4-pyridylmethyl)-4-[[8-[1-(4,4,4-trifluorobutanoyl)-3,6-dihydro-2H-pyridin-4-yl]-[1,2,4]triazolo[1,5-a]pyridin-2-yl]amino]benzamide], the concentration for half-maximal inhibition (IC50) amounted to 3.3 nM in experiment [1] and 37.2 nM in experiment [2].

Source of the values: patent US9873709B2 (priority 2013, dated 2018).
